Data reported in US10144742B2 (Millennium Pharmaceuticals, Inc., priority 2014, dated 2018).
Where two headings read alike, the source gives them in different places.

Legend:
PC3 cells = assay: PC3 growth inhibition (Cell-titer glo, 72 hours); format: cell-based; conditions: Homo sapiens, PC-3, PC3 cells, 72 hours, Cell-titer glo, read-out: Percent Inhibition (PC3 growth inhibition); for inhibition at 1 µM: compound concentration 1 μM; for inhibition at 1.667 µM: compound concentration 1.667 μM
Summary of the method: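 Compounds in AIM serum-free medium were applied for 72 h at 37 °C, 5% CO2 to PC3 cells plated overnight from RPMI1640 culture. Luminescence after 10 min CellTiter-Glo, normalised to DMSO, gave % viability at 1 μM or 1.667 μM, or GI50/LD50.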

hNAMPT protein = hNAMPT protein (Homo sapiens (Human), UniProt P43490); assay: NAMPT enzyme assay (TR-FRET/HTRF, BodiPY ligand, anti 6His-Tb); format: binding; conditions: for IC50: NAMPT IC50 range class, read-out: IC50; for inhibition at 1 µM: read-out: Percent Inhibition
Summary of the method: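 Compound or DMSO was incubated for 1 h at room temperature, protected from light, with BodiPY ligand and hNAMPT labelled by terbium anti-6His antibody. The 520 nm to 486 nm emission ratio after 320 nm excitation gave inhibition versus vehicle, from which concentration-response curves yielded IC50.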

Chain of hNAMPT protein (P43490 whole entry): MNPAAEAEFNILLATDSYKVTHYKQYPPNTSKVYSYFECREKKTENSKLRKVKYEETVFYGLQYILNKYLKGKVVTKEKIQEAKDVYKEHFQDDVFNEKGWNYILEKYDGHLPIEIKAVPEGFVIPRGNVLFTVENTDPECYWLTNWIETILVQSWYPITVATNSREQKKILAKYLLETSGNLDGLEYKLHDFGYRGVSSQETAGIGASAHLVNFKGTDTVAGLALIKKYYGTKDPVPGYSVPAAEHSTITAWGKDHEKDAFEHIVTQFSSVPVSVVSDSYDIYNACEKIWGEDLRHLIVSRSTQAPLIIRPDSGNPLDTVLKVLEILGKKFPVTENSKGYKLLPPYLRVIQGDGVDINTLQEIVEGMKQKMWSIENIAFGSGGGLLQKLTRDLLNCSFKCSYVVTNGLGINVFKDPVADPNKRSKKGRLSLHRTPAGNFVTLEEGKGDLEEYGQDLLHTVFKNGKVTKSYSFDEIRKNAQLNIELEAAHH

Row | Structure (SMILES) | inhibition at 1 µM (PC3 cells) | IC50 (hNAMPT protein) | inhibition at 1 µM (hNAMPT protein; compound concentration 1 μM) | inhibition at 1.667 µM (PC3 cells) | inhibition at 1 µM (hNAMPT protein)
1 | CC(=O)N1CCN(c2nc3cc(C(=O)NCCCn4ccnc4)ccc3nc2-c2ccccc2)CC1 [Compound I-168, 3-(4-Acetylpiperazin-1-yl)-N-[3-(1H-imidazol-1-yl)propyl]-2-phenylquinoxaline-6-carboxamide] | 1% | 100 to 500 nM | 84% | – | –
2 | O=C(NCCc1ccccn1)c1ccc2nc(-c3ccc(F)cc3)c(-c3ccc(F)cc3)nc2c1 [Compound I-169, 2,3-bis(4-fluorophenyl)-N-[2-(pyridin-2-yl)ethyl]quinoxaline-6-carboxamide] | 93% | 1000 to 2000 nM | 36% | – | –
3 | O=C(NCc1ccc2nccn2c1)c1ccc2nc(N3CCCCC3)c(-c3ccc(F)cc3)nc2c1 [Compound I-170] | – | < 100 nM | 98% | 2% | –
4 | CCOC(=O)CCc1ccc(-c2nc3cc(C(=O)NCCCn4ccnc4)ccc3nc2-c2ccccc2)cc1 [Compound I-171, ethyl 3-[4-(7-{[3-(1H-imidazol-1-yl)propyl]carbamoyl}-3-phenylquinoxalin-2-yl)phenyl]propanoate] | 95% | 2000 to 10000 nM | 27% | – | –
5 | COC1CN(c2nc3ccc(C(=O)NCCCc4ncc[nH]4)cc3nc2-c2ccc(F)cc2)C1 [Compound I-172, 3-(4-fluorophenyl)-N-[3-(1H-imidazol-2-yl)propyl]-2-(3-methoxyazetidin-1-yl)quinoxaline-6-carboxamide] | – | < 100 nM | > 99% | 2% | –
6 | O=C(NCCn1ccnc1)c1ccc2nc(N3CCC(C4CCNCC4)CC3)c(-c3ccccc3)nc2c1 [Compound I-173, 2-(4,4′-bipiperidin-1-yl)-N-[2-(1H-imidazol-1-yl)ethyl]-3-phenylquinoxaline-6-carboxamide] | -1% | 100 to 500 nM | 83% | – | –
7 | O=C(NCCCn1ccnc1)c1ccc2nc(-c3ccccc3)c(-c3ccsc3)nc2c1 [Compound I-174, N-[3-(1H-imidazol-1-yl)propyl]-2-phenyl-3-(3-thienyl)quinoxaline-6-carboxamide] | 1% | 100 to 500 nM | 89% | – | –
8 | O=C(NCCCn1ccnc1)c1ccc2nc(-c3ccccc3)c(N3CCC3)nc2c1 [Compound I-175, 3-(azetidin-1-yl)-N-[3-(1H-imidazol-1-yl)propyl]-2-phenylquinoxaline-6-carboxamide] | 95% | 2000 to 10000 nM | 20% | – | –
9 | O=C(NCCCn1ccnc1)c1ccc2nc(-c3ccccc3)c(-c3cccnc3)nc2c1 [Compound I-176, N-[3-(1H-imidazol-1-yl)propyl]-2-phenyl-3-(pyridin-3-yl)quinoxaline-6-carboxamide] | 1% | 1000 to 2000 nM | 46% | – | –
10 | Cn1cncc1CCNC(=O)c1ccc2nc(N3CCOCC3)c(-c3ccc(F)cc3)nc2c1 [Compound I-177, 3-(4-fluorophenyl)-N-[2-(1-methyl-1H-imidazol-5-yl)ethyl]-2-(morpholin-4-yl)quinoxaline-6-carboxamide] | – | 100 to 500 nM | 77% | 2% | –
11 | O=C(NCCCc1ncc[nH]1)c1ccc2nc(-c3ccc(F)cc3)c(-c3ccc(F)cc3)nc2c1 [Compound I-178, 2,3-bis(4-fluorophenyl)-N-[3-(1H-imidazol-2-yl)propyl]quinoxaline-6-carboxamide] | – | < 100 nM | 97% | 2% | –
12 | Cn1cccc1-c1nc2ccc(C(=O)NCCCn3ccnc3)cc2nc1-c1ccccc1 [Compound I-179, N-[3-(1H-imidazol-1-yl)propyl]-2-(1-methyl-1H-pyrrol-2-yl)-3-phenylquinoxaline-6-carboxamide] | -7% | 500 to 1000 nM | 57% | – | –
13 | O=C(NCCCc1ccccn1)c1ccc2nc(-c3ccc(F)cc3)c(-c3ccc(F)cc3)nc2c1 [Compound I-180, 2,3-Bis(4-fluorophenyl)-N-[3-(pyridin-2-yl)propyl]quinoxaline-6-carboxamide] | 102% | 2000 to 10000 nM | – | – | 27%
14 | COc1cccc(-c2nc3ccc(C(=O)NCCc4cccnc4)cc3nc2-c2cccc(OC)c2)c1 [Compound I-181, 2,3-bis(3-methoxyphenyl)-N-[2-(pyridin-3-yl)ethyl]quinoxaline-6-carboxamide] | 0% | < 100 nM | 100% | – | –
15 | CS(=O)(=O)c1cccc(-c2nc3ccc(C(=O)NCCCn4ccnc4)cc3nc2-c2ccccc2)c1 [Compound I-182, N-[3-(1H-imidazol-1-yl)propyl]-2-[3-(methylsulfonyl)phenyl]-3-phenylquinoxaline-6-carboxamide] | -7% | 100 to 500 nM | 83% | – | –
16 | COc1cccc(-c2nc3cc(C(=O)NCCCc4ncc[nH]4)ccc3nc2N2CCCCC2)c1 [Compound I-183, N-[3-(1H-imidazol-2-yl)propyl]-3-(3-methoxyphenyl)-2-(piperidin-1-yl)quinoxaline-6-carboxamide] | – | < 100 nM | > 99% | 2% | –
17 | O=C(NCCc1cnccn1)c1ccc2nc(-c3ccc(F)cc3)c(-c3ccc(F)cc3)nc2c1 [Compound I-184, 2,3-bis(4-fluorophenyl)-N-[2-(pyrazin-2-yl)ethyl]quinoxaline-6-carboxamide] | 101% | 1000 to 2000 nM | 39% | – | –
18 | COc1cccc(-c2nc3ccc(C(=O)NCCCn4ccnc4)cc3nc2-c2ccccc2)c1 [Compound I-187, N-[3-(1H-imidazol-1-yl)propyl]-2-(3-methoxyphenyl)-3-phenylquinoxaline-6-carboxamide] | -8% | 100 to 500 nM | 84% | – | –
19 | CC(C)(C)OC(=O)N1CCC(C2CCN(c3nc4ccc(C(=O)NCCCn5ccnc5)cc4nc3-c3ccccc3)CC2)CC1 [Compound I-188, tert-butyl 1′-(6-{[3-(1H-imidazol-1-yl)propyl]carbamoyl}-3-phenylquinoxalin-2-yl)-4,4′-bipiperidine-1-carboxylate] | -7% | 100 to 500 nM | 83% | – | –
20 | COc1cccc(-c2nc3cc(C(=O)NCCc4cccnc4)ccc3nc2N2CCOCC2)c1 [Compound I-189, 3-(3-methoxyphenyl)-2-(morpholin-4-yl)-N-[2-(pyridin-3-yl)ethyl]quinoxaline-6-carboxamide] | – | < 100 nM | 91% | 2% | –
21 | NC(=O)c1ccc(-c2nc3ccc(C(=O)NCCCn4ccnc4)cc3nc2-c2ccccc2)cc1 [Compound I-190, 2-(4-carbamoylphenyl)-N-[3-(1H-imidazol-1-yl)propyl]-3-phenylquinoxaline-6-carboxamide] | -6% | 100 to 500 nM | 74% | – | –
22 | O=C(NCCCn1ccnc1)c1ccc2nc(-c3ccccc3)c(NCc3ccccc3)nc2c1 [Compound I-191, 3-(benzylamino)-N-[3-(1H-imidazol-1-yl)propyl]-2-phenylquinoxaline-6-carboxamide] | 24% | 2000 to 10000 nM | 16% | – | –
23 | O=C(NCCCc1c[nH]cn1)c1ccc2nc(-c3ccc(F)cc3)c(-c3ccc(F)cc3)nc2c1 [Compound I-192, 2,3-bis(4-fluorophenyl)-N-[3-(1H-imidazol-4-yl)propyl]quinoxaline-6-carboxamide] | -7% | 100 to 500 nM | 78% | – | –
24 | O=C(NCCCc1cncnc1)c1ccc2nc(N3CCOCC3)c(-c3ccc(F)cc3)nc2c1 [Compound I-193, 3-(4-Fluorophenyl)-2-(morpholin-4-yl)-N-[3-(pyrimidin-5-yl)propyl]quinoxaline-6-carboxamide] | – | 100 to 500 nM | – | > 99% | 73%
25 | Cn1cccc1-c1nc2cc(C(=O)NCCCn3ccnc3)ccc2nc1-c1ccccc1 [Compound I-194, N-[3-(1H-imidazol-1-yl)propyl]-3-(1-methyl-1H-pyrrol-2-yl)-2-phenylquinoxaline-6-carboxamide] | 29% | 2000 to 10000 nM | 30% | – | –
26 | O=C(NCCCc1ncc[nH]1)c1ccc2nc(N3CCCCC3)c(-c3cccs3)nc2c1 [Compound I-195, N-[3-(1H-imidazol-2-yl)propyl]-2-(piperidin-1-yl)-3-(2-thienyl)quinoxaline-6-carboxamide] | – | < 100 nM | > 99% | 2% | –
27 | COc1cccc(-c2nc3cc(C(=O)NCCc4cccnc4)ccc3nc2N2CCCCC2)c1 [Compound I-196, 3-(3-methoxyphenyl)-2-(piperidin-1-yl)-N-[2-(pyridin-3-yl)ethyl]quinoxaline-6-carboxamide] | – | < 100 nM | 98% | 2% | –
28 | COc1cccc(-c2nc3cc(C(=O)NCCCc4cccnc4)ccc3nc2N2CCCCC2)c1 [Compound I-197, 3-(3-methoxyphenyl)-2-(piperidin-1-yl)-N-[3-(pyridin-3-yl)propyl]quinoxaline-6-carboxamide] | – | < 100 nM | > 99% | 2% | –
29 | O=C(NCCCc1ncc[nH]1)c1ccc2nc(N3CCCCC3)c(-c3ccc(Cl)cc3)nc2c1 [Compound I-198, 3-(4-chlorophenyl)-N-[3-(1H-imidazol-2-yl)propyl]-2-(piperidin-1-yl)quinoxaline-6-carboxamide] | – | < 100 nM | > 99% | 3% | –
